In patent US20030207843A1, “Treatment of drug-resistant human immunodeficiency virus infection” (priority 1999, published 2003):
Read-outs that look alike come from different tables or passages of the source.

Legend:
Assay type in all cases: cell-based
[1] = tested on: HIV-1LAI 4XAZT (D67N, K70R, T215Y, K219Q); experiment: p24 reduction assay in MT-2 cells, 4XAZT
Experimental: (§1) Cells. MT-2 cells (AIDS Research and Reference Reagent Program, National Institute of Allergy and Infectious Diseases, National Institutes of Health) were maintained in RPMI 1640 supplemented with 10% fetal bovine serum (FBS; JRH Biosciences, Lenexa, Kans.), 10 mM HEPES buffer, 50 IU/ml penicillin and 50 μg/ml streptomycin.
(§2) Antiviral Susceptibility Assays. The antiviral activity of each compound was determined by inoculating MT-2 cells with HIV-1LAI at a multiplicity of infection (MOI) of 0.01 TCID50/cell, followed by incubation in the presence of three-fold serial drug dilutions (3 wells per dilution) (see Mellors, et. al., Antimicrob. Agents Chemother. 39:1087-1092). Five or seven days after infection, culture supernatants were harvested, lysed with 0.5% triton-X 100 and assayed for p24 antigen concentration using a commercial ELISA assay (DuPont, NEN Products, Wilmington, Del.). The antiviral activity of the compounds is expressed as the IC50, which is the concentration required to inhibit 50% of p24 antigen production. The fold-resistance of a test virus is calculated by dividing the IC50 of the test virus by the IC50 of the HIV-1LAI control virus.
(§3) Generation of Mutant Recombinant HIV-1. HIV-1 containing the desired mutations were generated by oligonucleotide directed mutagenesis (Altered Sites II, Promega) as previously described (Mellors, et. al., Molecular Pharm. 41:446-451). After mutagenesis, mutant RT was subcloned into the pxxHIV-1LAI cloning vector using the silent XmaI and XbaI restriction sites located at the 5′ and 3′ ends of RT. Clones were DNA sequenced to verify the presence of the desired mutation(s) and electroporated into MT-2 cells as described above to generate infectious mutant recombinant HIV-1.
(§4) Mutant RT was generated via oligonucleotide-directed mutagenesis and ligated into the pXXHIV-1LAI cloning vector. Cloning was facilitated by the presence of two silent restriction sites at the 5′ and 3′ ends (Xma1 and Xba1, respectively) of pXXHIV-1LAI RT. Infectious mutant recombinant HIV-1 was generated by electroporating MT-2 cells with mutated pXXHIV-1LAI clones. The presence of the desired mutations was verified by DNA sequencing.
(§5) The multi-drug resistant HIV-1 strains, 11163p1 and 11588p1, are human clinical isolates having the RT mutations indicated. HIV-1 strains treated with the lipid analogs of the present invention include wild type, e.g., xxLAI, and the like, single mutation, e.g., xxLAI MI 84V (resistant to 3TC), xxLAI L74V (resistant to ddI and ddC), xxLAI K65R (resistant to ddI, ddC, DAPD, DXG, tenofovir, and adefovir), xxLAI T215Y (resistant to AZT), and the like, double mutations, e.g., xxLAI M41 L/T215Y (resistant to AZT), xxLAI MI 84V/T215Y (resistant to 3TC and AZT), and the like, and multiple mutations, e.g., xxLAI 4XAZT ((D67N, K70R, T215Y, K219Q) resistant to AZT)), xxLAI 4XAZT/M184V ((D67N, K70R, M 184V, T215Y, K219Q) resistant to AZT and 3TC), xxLAI M5456-12 (AZT+NNRTI resistant: D67N, K70R, K103N, T215Y), xxLAI G2-3g (AZT/3TC co-resistant: M41L, D67N, M184V, H208Y, L210W, R211K, L214F, T215Y, 1293V, E297A), 11163 (multinucleoside resistant virsus: M41L, A62V, V751, F77L, K103N, F116Y, Q151M, Y181C, M184V), 11588 (multinucleoside resistant virsus: A62V, K65R, K70R, V751, F77L, F116Y, Q151M, M184V, K219Q), and the like.

HIV-1LAI W88G = experiment: p24 reduction assay in MT-2 cells, W88G; conditions: for EC50: W88G
Experimental: as §1, §2, §3, §4
Invention compounds were also evaluated against a panel of HIV-1LAI derived recombinants resistant to PFA and the PFA invention compounds, as shown in Table 7.

HIV-1LAI L74V = experiment: p24 reduction assay in MT-2 cells, L74V; conditions: for EC50: L74V; for Fold-resistance: L74V relative to wild type virus
Experimental: as §1, §2, §3, §4, §5

[2] = tested on: HIV-1LAI (wild type, control); experiment: p24 reduction assay in MT-2 cells, wild type virus
Experimental: as §1
Viruses. Stock virus was prepared by electroporating (BIO-RAD Gene Pulser®, Hercules, Calif.) MT-2 cells (1.3×10^7 cells) with 5-10 μg of plasmid DNA encoding a proviral clone of HIV-1LAI (see Nguyen, et. al., Antimicrob. Agents Chemother. 38:2409-2414, and Peden, et. al., Virology 185: 661-672.). At peak cytopathic effect (generally 5-7 days post-transfection), culture supernatants were harvested and stored at −80° C. Viral infectivity titers were determined in threefold endpoint dilution assays conducted in MT-2 cells (six wells per dilution). The 50% tissue culture infective dose (TCID50) was calculated using the Reed and Muench equation (see Reed, et. al., Am. J. Hyg. 27:493-496).
as §2, with “[…],” for “was determined by inoculating MT-2 cells with HIV-1LAI at a multiplicity of infection (MOI) of 0.01 TCID50/cell,”
Cultures of MT-2 cells infected with either wild type (xxLAI) or with the drug-resistant strains of HIV-1 listed above were treated with lipid analogs of PFA (B-PFA, MB-PFA, or EB-PFA). The μM concentration required to produce 50% inhibition of replication of the drug-resistant strain of HIV (EC50) was determined as shown in Table 1. Drug effects were measured by assaying p24 (a viral protein) in the culture medium.

[3] = Table 1, 4xAZT, MOI 0.01, read-out: EC50
[4] = Table 5, 4XAZT relative to wild type virus
[5] = Table 5, 4XAZT, mean ± SD, read-out: EC50
[6] = Table 7, 4XAZT relative to wild type virus
[7] = Table 7, W88G relative to wild type virus
[8] = Table 1, HIV-1LAI(control), MOI 0.01, p24, MT-2 cells, read-out: EC50
[9] = Table 2, HIV-1LAI(control), MOI 0.05, read-out: EC50
[10] = Table 3, Wild type, mean ± SD, at least three experiments, read-out: EC50
[11] = Table 4, HIV-1LAI wild type, mean ± SD, two or three experiments, read-out: EC50
[12] = Table 5, Wild type, mean ± SD, read-out: EC50
[13] = Table 6, baseline virus HIV-1LAI passage 0, read-out: EC50

SMILES: CCCCCCCCCCCCCCCCCCOC[C@@H](O)COP(=O)(O)C(=O)O [B-PFA, 1-O-octadecyl-sn-glycero-3-PFA]
- EC50 [1, 3]: 1.25 µM
- Fold-resistance [1, 4]: (0.8)
- EC50 [1, 5]: 1.47 ± 0.63 µM
- Fold-resistance [1, 6]: 0.63 (0.8)
- EC50 ([1]; Table 7, 4XAZT, read-out: EC50): 1.47 µM
- Fold-resistance (HIV-1LAI W88G; [7]): (>17.2)
- EC50 (HIV-1LAI W88G; Table 7, read-out: EC50): > 30 µM
- EC50 (HIV-1LAI L74V; Table 1, MOI 0.01): 4.25 µM
- Fold-resistance (HIV-1LAI L74V; Table 3): (2.5)
- EC50 (HIV-1LAI L74V; Table 3, mean ± SD): 4.45 ± 2.26 µM
- EC50 [2, 8]: 1.9 µM
- EC50 [2, 9]: 3.01 µM
- EC50 [2, 10]: 1.79 ± 0.81 µM
- EC50 [2, 11]: 1.8 ± 0.81 µM
- EC50 [2, 12]: 1.79 ± 0.81 µM

SMILES: O=C(O)P(=O)(O)O [PFA, phosphonoformate, reference compound]
- EC50 ([1]; Human immunodeficiency virus 1, MT2, Table 1, 4xAZT, MOI 0.01, read-out: EC50): 8.82 µM
- EC50 ([1]; Human immunodeficiency virus 1, MT2, Table 5, 4XAZT, mean ± SD, read-out: EC50): 12.7 ± 8.07 µM
- EC50 ([1]; Human immunodeficiency virus 1, MT2, Table 7, 4XAZT, read-out: EC50): 12.7 µM
- Fold-resistance [1, 4]: (0.7)
- Fold-resistance [1, 6]: 8.07 (0.7)
- EC50 (HIV-1LAI W88G; Human immunodeficiency virus 1, MT2, Table 7, read-out: EC50): 152 µM
- Fold-resistance (HIV-1LAI W88G; [7]): 14.28 (11.7)
- Fold resistance (HIV-1LAI W88G; {}): 6.2 fold
- EC50 (HIV-1LAI L74V; Human immunodeficiency virus 1, MT2, Table 1, MOI 0.01): 37.4 µM
- EC50 (HIV-1LAI L74V; Human immunodeficiency virus 1, MT2, Table 3, mean ± SD): 32.7 ± 9 µM
- Fold-resistance (HIV-1LAI L74V; Table 3): (1.9)
- EC50 ([2]; Human immunodeficiency virus 1, MT2, Table 1, HIV-1LAI(control), MOI 0.01, p24, MT-2 cells, read-out: EC50): 18.3 µM
- EC50 ([2]; Human immunodeficiency virus 1, MT2, Table 2, HIV-1LAI(control), MOI 0.05, read-out: EC50): 20.1 µM
- EC50 ([2]; Human immunodeficiency virus 1, MT2, Table 3, Wild type, mean ± SD, at least three experiments, read-out: EC50): 17.7 ± 10.1 µM
- EC50 ([2]; Human immunodeficiency virus 1, MT2, Table 4, HIV-1LAI wild type, mean ± SD, two or three experiments, read-out: EC50): 17.7 ± 10.1 µM
- EC50 ([2]; Human immunodeficiency virus 1, MT2, Table 5, Wild type, mean ± SD, read-out: EC50): 17.7 ± 10.1 µM
- EC50 ([2]; Human immunodeficiency virus 1, MT2, Table 6, baseline virus HIV-1LAI passage 0, read-out: EC50): 5.27 µM
- EC50 ([2]; Human immunodeficiency virus 1, MT2, Table 7, Wild type, mean (SD in next grid row), read-out: EC50): 13.1 µM

SMILES: CCCCCCCCCCCCCCCCCCOC[C@H](COP(=O)(O)C(=O)O)OCC [EB-PFA, 1-O-octadecyl-2-O-ethyl-sn-glycero-3-PFA]
- EC50 [1, 3]: 0.33 µM
- Fold-resistance [1, 4]: (0.5)
- EC50 [1, 5]: 0.34 ± 0.24 µM
- Fold-resistance [1, 6]: 0.24 (0.5)
- EC50 ([1]; Table 7, 4XAZT, read-out: EC50): 0.34 µM
- Fold resistance (HIV-1LAI W88G; Example 6, recombinant virus encoding W88G): 9.4 fold
- Fold-resistance (HIV-1LAI W88G; [7]): 0.64 (7.6)
- EC50 (HIV-1LAI W88G; Table 7, read-out: EC50): 6.8 µM
- EC50 (HIV-1LAI L74V; Table 1, MOI 0.01): 1.34 µM
- Fold-resistance (HIV-1LAI L74V; Table 3): (1.9)
- EC50 (HIV-1LAI L74V; Table 3, mean ± SD): 1.21 ± 0.85 µM
- EC50 [2, 8]: 0.22 µM
- EC50 [2, 9]: 0.76 µM
- EC50 [2, 10]: 0.65 ± 0.36 µM
- EC50 [2, 11]: 0.7 ± 0.36 µM
- EC50 [2, 12]: 0.65 ± 0.36 µM
- EC50 [2, 13]: 0.09 µM

SMILES: Cc1cn([C@H]2C[C@H](N=[N+]=[N-])[C@@H](CO)O2)c(=O)[nH]c1=O [AZT, 3′-Azido-3′-deoxythymidine]
- EC50 ([1]; Human immunodeficiency virus 1, MT2, Table 8, 4XAZT, read-out: AZT EC50): 0.29 ± 0.114 µM
- Fold resistance ([1]; Table 8, 4XAZT relative to wild type virus): 7.3
- EC50 (HIV-1LAI W88G; Human immunodeficiency virus 1, MT2, Table 8, read-out: AZT EC50): 0.019 ± 0.013 µM
- Fold resistance (HIV-1LAI W88G; Table 8, W88G relative to wild type virus): 0.9
- EC50 ([2]; Human immunodeficiency virus 1, MT2, Table 8, Wild type, mean ± SD, read-out: AZT EC50): 0.021 ± 0.008 µM

SMILES: CCCCCCCCCCCCCCCCCCOC[C@H](COP(=O)(O)C(=O)O)OC [MB-PFA, 1-O-octadecyl-2-O-methyl-sn-glycero-3-PFA]
- EC50 [1, 3]: 0.46 µM
- Fold-resistance [1, 4]: (1.2)
- EC50 [1, 5]: 0.58 ± 0.22 µM
- Fold-resistance [1, 6]: 0.22 (1.2)
- EC50 ([1]; Table 7, 4XAZT, read-out: EC50): 0.58 µM
- Fold-resistance (HIV-1LAI W88G; [7]): 4.42 (7.6)
- EC50 (HIV-1LAI W88G; Table 7, read-out: EC50): 5.88 µM
- EC50 (HIV-1LAI L74V; Table 1, MOI 0.01): 0.52 µM
- Fold-resistance (HIV-1LAI L74V; Table 3): (1.8)
- EC50 (HIV-1LAI L74V; Table 3, mean ± SD): 0.88 ± 0.63 µM
- EC50 [2, 8]: 0.35 µM
- EC50 [2, 9]: 1.04 µM
- EC50 [2, 10]: 0.5 ± 0.48 µM
- EC50 [2, 11]: 0.5 ± 0.48 µM
- EC50 [2, 12]: 0.5 ± 0.48 µM
- EC50 [2, 13]: 0.07 µM
